Assay results published in patent US9980943B2, “Methods of treating muscular dystrophy” (BOARD OF REGENTS OF THE NEVADA SYSTEM OF HIGHER EDUCATION, …, priority 2013, dated 2018).

Tests used:
Type in all cases: cell-based, mouse
[1] = tested on: α7 integrin (LacZ reporter in α7βgal+/− myoblasts); assay: Myoblast α7+/LacZ integrin FDG assay (Burkin assay in myoblasts, 96-well); conditions: α7+/LacZ myoblasts, 96-well
[2] = tested on: α7 integrin (LacZ reporter in α7+/LacZ myotubes); assay: Myotube α7 integrin FDG assay (Burkin assay in myotubes, 96-well); conditions: myotubes
[3] = tested on: β-galactosidase in CMV-LacZ C2C12 myoblasts; assay: CMV-LacZ secondary screen in C2C12 myoblasts (β-Gal stabilizing assay); conditions: CMV-LacZ C2C12 myoblasts
Procedure, shortened: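 C2C12 myoblasts stably carrying a linearized CMV-driven LacZ construct, clone chosen by β-gal level in the myoblast FDG assay. Compounds tested in 96-well dose-response at 0.5, 1, 5, 10, 20 and 40 μM, N=2 replicates per point, to detect β-gal stabilization.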

[4] = tested on: β-galactosidase in CMV-LacZ C2C12 myotubes; assay: CMV-LacZ secondary screen in C2C12 myotubes (β-Gal stabilizing assay); conditions: C2C12 CMV-LacZ myotubes, fold relative to DMSO
Procedure, shortened: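 β-gal stabilization was measured in C2C12 myoblasts or myotubes stably transfected with a CMV-driven LacZ construct, using the FDG β-gal assay. Compounds were tested in dose-response at 0.5, 1, 5, 10, 20 and 40 μM, with two replicates per point.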

Row | Compound | Burkin Assay in Myoblasts, signal relative to DMSO ([1]; 0.5 uM) | Burkin Assay in Myoblasts, signal relative to DMSO ([1]; 1 uM) | Burkin Assay in Myoblasts, signal relative to DMSO ([1]; 5 uM) | Burkin Assay in Myoblasts, signal relative to DMSO ([1]; 10 uM) | Burkin Assay in Myoblasts, signal relative to DMSO ([1]; 20 uM) | Burkin Assay in Myoblasts, signal relative to DMSO ([1]; 40 uM) | Burkin Assay in Myotubes, α7 integrin LacZ reporter signal relative to DMSO ([2]; 0.5 uM) | Burkin Assay in Myotubes, α7 integrin LacZ reporter signal relative to DMSO ([2]; 1 uM) | Burkin Assay in Myotubes, α7 integrin LacZ reporter signal relative to DMSO ([2]; 5 uM) | Burkin Assay in Myotubes, α7 integrin LacZ reporter signal relative to DMSO ([2]; 10 uM) | Burkin Assay in Myotubes, α7 integrin LacZ reporter signal relative to DMSO ([2]; 20 uM) | Burkin Assay in Myotubes, α7 integrin LacZ reporter signal relative to DMSO ([2]; 40 uM) | CMV-LACZ in Myoblasts (β-galactosidase activity relative to DMSO) ([3]; 0.5 uM) | CMV-LACZ in Myoblasts (β-galactosidase activity relative to DMSO) ([3]; 1 uM) | CMV-LACZ in Myoblasts (β-galactosidase activity relative to DMSO) ([3]; 5 uM) | CMV-LACZ in Myoblasts (β-galactosidase activity relative to DMSO) ([3]; 10 uM) | CMV-LACZ in Myoblasts (β-galactosidase activity relative to DMSO) ([3]; 20 uM) | CMV-LACZ in Myoblasts (β-galactosidase activity relative to DMSO) ([3]; 40 uM) | CMV-LACZ in Myotubes, signal relative to DMSO ([4]; 0.5 uM) | CMV-LACZ in Myotubes, signal relative to DMSO ([4]; 1 uM) | further results
1 | COc1ccc(C(=O)Nc2ccc(Cl)cn2)cc1Cl [MLS000089748-01] | 1.145 | 1.168 | 0.8656 | 0.7355 | 0.2402 | 0.1766 | 1.043 | 0.9139 | 0.8675 | 0.8026 | 0.7715 | 0.7415 | 1.2129 | 0.8592 | 1.0665 | 0.9905 | 0.3140 | 0.4437 | 0.9527 | 0.9809 | CMV-LACZ in Myotubes, signal relative to DMSO ([4]; 5 uM): 1.1104; CMV-LACZ in Myotubes, signal relative to DMSO ([4]; 10 uM): 0.9813; CMV-LACZ in Myotubes, signal relative to DMSO ([4]; 20 uM): 1.3800; CMV-LACZ in Myotubes, signal relative to DMSO ([4]; 40 uM): 1.2820
2 | CCOC(=O)c1sc(=N)n(-c2ccc(OC)cc2)c1C [MLS000090135-01] | 1.227 | 1.166 | 0.988 | 1.018 | 0.6029 | 0.3956 | 1.042 | 0.9598 | 0.8747 | 0.9078 | 0.8015 | 0.8215 | 1.0896 | 0.9421 | 0.9731 | 0.9296 | 0.6017 | 0.3653 | 1.0155 | 1.1036 | CMV-LACZ in Myotubes, signal relative to DMSO ([4]; 5 uM): 0.7503; CMV-LACZ in Myotubes, signal relative to DMSO ([4]; 10 uM): 1.0114; CMV-LACZ in Myotubes, signal relative to DMSO ([4]; 20 uM): 1.1100; CMV-LACZ in Myotubes, signal relative to DMSO ([4]; 40 uM): 1.1840
